How the values were obtained:
[1] = tested on: wheat; experiment: Pre-emergence test (crop tolerance); format: in vivo; details: application rates between 250 and 750 g/ha, scored after three weeks vs untreated control
Method: (§1) Solvent: 5 parts by weight of acetone
(§2) Emulsifier: 1 part by weight of alkylaryl polyglycol ether
(§3) To prepare a suitable preparation of active compound, 1 part by weight of active compound is mixed with the stated amount of solvent, the stated amount of emulsifier is added, and the concentrate is diluted with water to the desired concentration.
(§4) Seeds of the test plants are sown in normal soil. After approx. 24 hours, the soil is sprayed with the preparation of active compound in such a way that the desired amounts of active compound are in each case applied per unit area. The concentration of the spray mixture is chosen in such a way that the desired amounts of active compound are in each case applied in 1,000 liters of water/ha.
(§5) After three weeks, the degree of damage to the plants is scored in % damage in comparison with the development of the untreated control.

[2] = tested on: Avena fatua; experiment: Pre-emergence test; format: in vivo; details: application rates between 250 and 750 g/ha, scored after three weeks vs untreated control, 0% = no action, 100% = total destruction
Method: as §1, §2, §3, §4, §5

[3] = tested on: Lolium; experiment: Pre-emergence test; format: in vivo; details: application rates between 250 and 750 g/ha, scored after three weeks vs untreated control
Method: as §1, §2, §3, §4, §5

[4] = tested on: Solanum; experiment: Pre-emergence test; format: in vivo; details: application rates between 250 and 750 g/ha, scored after three weeks vs untreated control
Method: as §1, §2, §3, §4, §5

[5] = tested on: Matricaria; experiment: Pre-emergence test; format: in vivo; details: application rates between 250 and 750 g/ha, scored after three weeks vs untreated control
Method: as §1, §2, §3, §4, §5

[6] = tested on: Sinapis; experiment: Post-emergence test; format: in vivo; details: application rates of 15-750 g/ha, scored after three weeks vs untreated control
Method: as §1, §2, §3
(§6) Test plants which have a height of 5-15 cm are sprayed with the preparation of active compound in such a way that the desired amounts of active compound are in each case applied per unit area. The concentration of the spray mixture is chosen in such a way that the amounts of active compound desired in each case are applied in 1,000 liters of water/ha.
as §5

[7] = tested on: Abutilon; experiment: Post-emergence test; format: in vivo; details: application rates of 15-750 g/ha, scored after three weeks vs untreated control
Method: as §1, §2, §3, §6, §5

[8] = tested on: Galium; experiment: Post-emergence test; format: in vivo; details: application rates of 15-750 g/ha, scored after three weeks vs untreated control
Method: as §1, §2, §3, §6, §5

melting point [°C] | Compound | degree of damage to the plants, wheat (crop plant, tolerated well) [1] [%] | degree of damage to the plants, Avena fatua [2] [%] | degree of damage to the plants, Lolium [3] [%] | degree of damage to the plants, Solanum [4] [%] | degree of damage to the plants, Matricaria [5] [%] | degree of damage to the plants, Sinapis [6] [%] | degree of damage to the plants, Abutilon [7] [%] | degree of damage to the plants, Galium [8] [%]
276 | CC(C)(C)C(=O)Nc1ccc(Cl)cc1-n1c(=O)cc(C(F)(F)F)[nH]c1=O |  |  |  |  |  |  |  | 
267 | Cn1c(C(F)(F)F)cc(=O)n(-c2cc(Cl)ccc2NC(=O)C(C)(C)C)c1=O |  |  |  |  |  |  |  | 
 | Cn1c(C(F)(F)F)cc(=O)n(-c2ccc(Cl)cc2NC(=O)C(C)(C)C)c1=O [Example 18] | 0 | 100 | 100 | 100 | 100 | 100 | 100 | 100
 | Cn1c(C(F)(F)F)cc(=O)n(-c2ccc(Cl)cc2NC(=O)C2CC2)c1=O [Example 19] | 0 | 100 | 100 | 100 | 100 | 100 | 100 | 100
 | CC(=O)Nc1cc(Cl)ccc1-n1c(=O)cc(C(F)(F)F)n(C)c1=O [Example 20] | 0 | 100 | 100 | 100 | 100 | 100 | 100 | 100
 | Cn1c(C(F)(F)F)cc(=O)n(-c2ccc(Cl)cc2NC(=O)c2ccc(Cl)cc2)c1=O [Example 23] | 0 | 100 | 100 | 100 | 100 | 100 | 100 | 100
 | CC(C)C(=O)Nc1cc(Cl)ccc1-n1c(=O)cc(C(F)(F)F)n(C)c1=O [Example 24] | 0 | 100 | 100 | 100 | 100 | 100 | 100 | 100
 | CCNC(=S)Nc1ccccc1-n1c(=O)n(C2CC2)c(=O)n1C [Example 102] | 0 | 100 | 100 | 100 | 100 | 100 | 100 | 100
